According to US20230122776A1, “ANTIVIRAL AGENT” (priority 2020, published 2023):
“And” between values parts separate entries of the source, which are not always exact repeats. Identical values can stand only once. Like-named read-outs stand apart in the source and are kept apart here.

What was measured:
[1] = target: blood coagulation factor X (Homo sapiens, UniProt P00742); details: from Reinmüller, Zentralblatt Chirurgie 124 (1999); cited from earlier work
SARS-CoV-2 [2] = type: in vivo; details: 4 close contacts; inhaled taurolidine 0.5% 3 times or twice a day for 7 days
SARS-CoV-2 [3] = type: in vivo

Sequence of blood coagulation factor X (P00742 41-488): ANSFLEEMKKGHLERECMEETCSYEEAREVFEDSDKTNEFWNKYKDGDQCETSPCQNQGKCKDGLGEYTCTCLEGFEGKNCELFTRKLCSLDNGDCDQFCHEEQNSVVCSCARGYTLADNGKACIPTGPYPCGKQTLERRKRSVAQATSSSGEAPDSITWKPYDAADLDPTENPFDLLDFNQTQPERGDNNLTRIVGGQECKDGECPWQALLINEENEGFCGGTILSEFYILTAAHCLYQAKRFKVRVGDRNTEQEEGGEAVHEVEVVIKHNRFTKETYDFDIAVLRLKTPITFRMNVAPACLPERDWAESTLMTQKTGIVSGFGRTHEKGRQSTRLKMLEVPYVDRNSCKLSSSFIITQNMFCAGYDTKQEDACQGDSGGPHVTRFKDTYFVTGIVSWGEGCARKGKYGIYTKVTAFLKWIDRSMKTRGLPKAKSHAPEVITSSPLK

For `O=S1(=O)CCN(CN2CCS(=O)(=O)NC2)CN1` [taurolidine], the “activity of the blood coagulation factor X” value [1] is given as “inhibits the activity”, the “POCT for SARS-CoV-2 under prophylaxis” value (SARS-CoV-2 [2]) is given as “remained negative” and the “disease symptoms under prophylaxis” value (SARS-CoV-2 [2]) is given as “remained symptom-free”. For the same compound, the “time interval from the start of treatment to the easing of the symptoms” value (SARS-CoV-2 [3]; SARS-CoV-2 positive (POCT) participant, inhaled taurolidine 0.5% three times a day) was no more than 48 h and the “time interval from the start of treatment to the easing of the symptoms” value (SARS-CoV-2 [3]; in vivo) was 96 h and 72 h.
